Assay results reported in patent US20220282657A1 (priority 2016, published 2022).

Test system: spleen cells
Parameters: species or system CD-1 mice
Settings: mouse, in vivo

Substance: QS21
- cell-mediated immune response (cytokine profile), in words: strong and balanced Th1 plus Th2 cytokine profile
